Source: patent publication EP4786472A1, “BRD4 PROTEIN DEGRADATION AGENT COMPOUND, AND PREPARATION METHOD AND USE THEREFOR” (Miracure Biotechnology Limited, priority 2023, dated 2025)
Like-named read-outs stand apart in the source and are kept apart here.

What was measured:
Assay type in all cases: cell-based
LNCaP = test: Cell proliferation assay (CellTiterGlo); conditions: LNCaP cells, 72 h compound treatment, CellTiterGlo cell viability, read-out: LNCap ATP average IC50
Protocol: (§1) Test Example 1. Cell Proliferation Assay
(§2) The cell line used was 22RV1 or LNCaP, and the medium was RPMI-1640 containing 10% FBS and antibiotics. All incubations were performed at 37 °C in a humidified carbon dioxide incubator.
(§3) On day 1, cells were digested with 0.25% trypsin (containing EDTA) and collected by centrifugation. The cells were seeded in a 96-well plate (white wall/transparent bottom) at 5000 cells/well and cultured overnight.
(§4) On day 2, A stock solution of the compound at a concentration of 10 mM was subjected to an 8-fold serial dilution to obtain 8 concentration points. 2 µL of the compound solution at each concentration point was added to 98 µL of fresh medium, and the mixture was mixed homogeneously. Then, 5 µL of the compound solution diluted in the medium at each concentration point was added to 100 µL of overnight medium containing the cells, and 2 replicates were set for each concentration. The mixture was cultured for 72 h.
(§5) After 72 h of compound treatment, the plate was equilibrated to room temperature, 100 µL of CellTiterGlo (Promega) was added. The mixture was mixed homogeneously for 2 min, left to stand at room temperature for 10 min, and then read for luminescence values on a SpectraMax M5 microplate reader to evaluate cell viability. The positive control was 1% Tween-20 and the negative control was 0.1% DMSO. IC50 was generated by 4-parameter non-linear regression fitting in GraphPad Prism.

22RV1 = test: Cell proliferation assay (CellTiterGlo); conditions: 22RV1 cells, 72 h compound treatment, CellTiterGlo cell viability, read-out: 22Rv1 ATP average IC50
Protocol: as §1, §2, §3, §4, §5

BRD4 = BRD4 (Homo sapiens, UniProt O60885); test: BRD4 degradation assay (Western-blot / Simple Western) in 22RV1 cells; conditions: for activity at 0.2 µM: 22Rv1, 5 h, read-out: BRD4 degradation of 22RV1 (200 nM 5 h)

| SMILES | IC50 (LNCaP; Homo sapiens) [nM] | IC50 (22RV1; Homo sapiens) [nM] | activity at 0.2 µM (BRD4) [%] | IC50 (LNCaP) [nM] | IC50 (22RV1) [nM] | BRD4 degradation of 22RV1 (200 nM 5 h) (BRD4; 22RV1 cells, 200 nM, 5 h, target content as percentage of control (DMSO = 100%)) |
| --- | --- | --- | --- | --- | --- | --- |
| C=CS(=O)(=O)Nc1ccc(C2=N[C@@H](CC(=O)OC(C)(C)C)c3nnc(C)n3-c3sc(C)c(C)c32)cc1 [compound 9231] | < 50 | 50 to 200 | < 20 | – | – | – |
| Cc1sc2c(c1C)C(c1ccc(NC(=O)CCl)cc1)=N[C@@H](Cc1nccs1)c1nnc(C)n1-2 [compound 9250] | < 50 | < 50 | 80 to 100 | – | – | – |
| C#CC(=O)Nc1ccc(C2=N[C@@H](CC(=O)OC(C)(C)C)c3nnc(C)n3-c3sc(C)c(C)c32)cc1 [compound 9260] | < 50 | < 50 | < 20 | – | – | – |
| CC#CC(=O)Nc1ccc(C2=N[C@@H](Cc3nccs3)c3nnc(C)n3-c3sc(C)c(C)c32)cc1 [compound 9253] | < 50 | < 50 | 50 to 80 | – | – | – |
| C=CC(=O)Nc1ccc(C2=N[C@@H](CC(=O)OC(C)(C)C)c3nnc(C)n3-c3sc(C)c(C)c32)cc1 [compound 9230] | < 50 | < 50 | < 20 | – | – | – |
| CC#CC(=O)Nc1ccc(C2=N[C@@H](CC(=O)OC(C)(C)C)c3nnc(C)n3-c3sc(C)c(C)c32)cc1 [compound 9259] | < 50 | < 50 | 20 to 50 | – | – | – |
| Cc1sc2c(c1C)C(c1ccc(C#CCN)cc1)=N[C@@H](CC(=O)OC(C)(C)C)c1nnc(C)n1-2 [GNE-0011, reference compound] | – | – | – | < 50 | < 50 | B (20% < B <50%) |
